Results: patent publication US4515941A, “23-Demycinosyldesmycosin derivatives” (Toyo Jozo Kabushiki Kaisha, priority 1982, dated 1985)
Converted amounts (≈) assume the structure as drawn. Where two headings read alike, the source gives them in different places.

Experiments:
Assay type in all cases: cell-based
[1] = test system: Staphylococcus aureus MS353 C36; experiment: MIC, Staphylococcus aureus MS353 C36; settings: MS353C36
[2] = test system: Streptococcus faecalis 1501; experiment: MIC, Streptococcus faecalis 1501
Sarcina lutea ATCC 9341 = experiment: MIC, Sarcina lutea ATCC 9341; settings: Micrococcus luteus, ATCC9341
[3] = test system: Micrococcus flavus ATCC 10240; experiment: MIC, Micrococcus flavus ATCC 10240; settings: Micrococcus flavus, ATCC10240
[4] = test system: Corynebacterium diptheriae P.Y.8; experiment: MIC, Corynebacterium diptheriae P.Y.8
[5] = test system: Bacillus subtilis ATC 6633; experiment: MIC, Bacillus subtilis ATC 6633
[6] = test system: Escherichia coli NIHJ-JC2; experiment: MIC, Escherichia coli NIHJ-JC2; settings: NIHJJC2
Escherichia coli B = experiment: MIC, Escherichia coli B
[7] = test system: Klebsiella pneumoniae ATCC 10031; experiment: MIC, Klebsiella pneumoniae ATCC 10031
Salmonella typhosa H901 = experiment: MIC, Salmonella typhosa H901
[8] = test system: Salmonella enteritidis Gaertner; experiment: MIC, Salmonella enteritidis Gaertner; settings: Salmonella enterica, ENTERITIDIS
[9] = test system: Shigella flexineri type 3a; experiment: MIC, Shigella flexineri type 3a; settings: TYPE3A
Shigella sonnei E33 = experiment: MIC, Shigella sonnei E33
Proteus vulgaris OX19 = experiment: MIC, Proteus vulgaris OX19
Serratia marcescens = experiment: MIC, Serratia marcescens
[10] = test system: Pseudomonas aeruginosa IAM 1095; experiment: MIC, Pseudomonas aeruginosa IAM 1095; settings: IAM1095
[11] = test system: Staphylococcus aureus ATCC 6538P; experiment: MIC, Staphylococcus aureus ATCC 6538P; settings: ATCC6538P
[12] = test system: Staphylococcus aureus MS353; experiment: MIC, Staphylococcus aureus MS353
[13] = test system: Staphylococcus epidermis sp-al-1; experiment: MIC, Staphylococcus epidermis sp-al-1
[14] = test system: Streptococcus pyogenes N.Y.5; experiment: MIC, Streptococcus pyogenes N.Y.5
[15] = test system: Streptococcus agalactiae 1020; experiment: MIC, Streptococcus agalactiae 1020
[16] = test system: Staphylococcus aureus MS353 A0; experiment: MIC, Staphylococcus aureus MS353 A0 (macrolide resistant); settings: MS353A0, macrolide resistant bacteria A group
Excerpt: (§1) *macrolide resistant bacteria A group (clinical isolates of erythromycin,
(§2) oleandomycin and 16membered macrolide antibiotic resistant strains.)

[17] = test system: Streptococcus pyogenes 1022; experiment: MIC, Streptococcus pyogenes 1022 (macrolide resistant); settings: macrolide resistant bacteria A group
Excerpt: as §1, §2

[18] = test system: Staphylococcus aureus 0127; experiment: MIC, Staphylococcus aureus 0127 (macrolide resistant); settings: Staphylococcus aureus 0127; macrolide resistant bacteria A group; read-out: MIC
Excerpt: as §1, §2

[19] = Enterococcus faecalis, 1501, Streptococcus faecalis 1501
[20] = Bacillus subtilis, ATC6633, Bacillus subtilis ATC 6633
[21] = Klebsiella pneumoniae, ATCC10031, Klebsiella pneumoniae ATCC 10031
[22] = Proteus vulgaris, OX19, Proteus vulgaris OX19
[23] = Staphylococcus aureus MS353, read-out: MIC
[24] = SPAL1, Staphylococcus epidermis sp-al-1, read-out: MIC
[25] = Enterococcus faecalis, Streptococcus faecalis 1501, read-out: MIC
[26] = Streptococcus agalactiae 1020, read-out: MIC
[27] = ATC6633, Bacillus subtilis ATC 6633, read-out: MIC
[28] = ATCC10031, Klebsiella pneumoniae ATCC 10031, read-out: MIC
[29] = Proteus vulgaris OX19, read-out: MIC
[30] = Pseudomonas aeruginosa IAM 1095, read-out: MIC
[31] = Streptococcus pyogenes 1022, read-out: MIC

| Compound | MIC [1] | MIC [2, 19] | MIC (Sarcina lutea ATCC 9341) | MIC [3] | MIC ([4]; Corynebacterium, P.Y.8) | MIC [5, 20] | MIC [6] | MIC (Salmonella typhosa H901; Salmonella enterica, TYPHOSA) | MIC (Shigella sonnei E33) | MIC ([11]; read-out: MIC) | MIC [12, 23] | MIC [16] | MIC [13, 24] | MIC ([14]; read-out: MIC) | MIC [2, 25] | MIC [15, 26] | MIC [5, 27] | MIC [7, 28] | MIC (Proteus vulgaris OX19; [29]) | MIC [10, 30] | also measured |
| --- | --- | --- | --- | --- | --- | --- | --- | --- | --- | --- | --- | --- | --- | --- | --- | --- | --- | --- | --- | --- | --- |
| CC[C@H]1OC(=O)[C@H](C)[C@@H](O[C@H]2C[C@@](C)(OC)[C@@H](O)[C@H](C)O2)[C@H](C)[C@@H](O[C@@H]2O[C@H](C)C[C@H](N(C)C)[C@H]2O)[C@](C)(O)C[C@@H](C)C(=O)[C@H](C)[C@@H](O)[C@]1(C)O [EM, erythromycin, reference compound] | 0.4 mg/L (≈ 0.545 µM) | 0.2 mg/L (≈ 0.273 µM) | ≤ 0.05 mg/L | 0.1 mg/L (≈ 0.136 µM) | ≤ 0.05 mg/L | 0.1 mg/L (≈ 0.136 µM) | 100 mg/L (≈ 136 µM) | 100 mg/L (≈ 136 µM) | 100 mg/L (≈ 136 µM) |  |  |  |  |  |  |  |  |  |  |  | MIC (Escherichia coli B): > 100 mg/L; MIC [7, 21]: 6.3 mg/L (≈ 8.58 µM); MIC (Salmonella typhosa H901): 50 mg/L (≈ 68.1 µM); MIC [8]: 100 mg/L (≈ 136 µM); MIC [9]: 12.5 mg/L (≈ 17 µM); MIC (Proteus vulgaris OX19; Proteus vulgaris OX19): 25 mg/L (≈ 34.1 µM); MIC (Proteus vulgaris OX19; [22]): 50 mg/L (≈ 68.1 µM); MIC (Serratia marcescens): 100 mg/L (≈ 136 µM); MIC ([10]; Pseudomonas aeruginosa): 100 mg/L (≈ 136 µM) |
| CC[C@H]1OC(=O)C[C@@H](O)[C@H](C)[C@@H](O[C@@H]2O[C@H](C)[C@@H](O[C@H]3C[C@@](C)(O)[C@@H](O)[C@H](C)O3)[C@H](N(C)C)[C@H]2O)[C@@H](CC=O)C[C@@H](C)C(=O)/C=C/C(C)=C/[C@@H]1CO[C@@H]1O[C@H](C)[C@@H](O)[C@@H](OC)[C@H]1OC [TS, tylosin, reference compound] | 0.4 mg/L (≈ 0.437 µM) | 0.8 mg/L (≈ 0.873 µM) | ≤ 0.05 mg/L | ≤ 0.05 mg/L | ≤ 0.05 mg/L | 0.2 mg/L (≈ 0.218 µM) |  | > 100 mg/L | > 100 mg/L |  |  |  |  |  |  |  |  |  |  |  | MIC ([11]; Staphylococcus aureus): 0.8 mg/L (≈ 0.873 µM); MIC ([12]; Staphylococcus aureus, MS353, Staphylococcus aureus MS353): 0.8 mg/L (≈ 0.873 µM); MIC ([13]; Staphylococcus, SPAL1, Staphylococcus epidermis sp-al-1): 0.4 mg/L (≈ 0.437 µM); MIC [14]: 0.1 mg/L (≈ 0.109 µM); MIC ([2]; Streptococcus faecalis 1501): 1.6 mg/L (≈ 1.75 µM); MIC ([15]; Streptococcus agalactiae 1020): 0.4 mg/L (≈ 0.437 µM); MIC ([15]; Streptococcus agalactiae, 1020, Streptococcus agalactiae 1020): 0.2 mg/L (≈ 0.218 µM); MIC ([7]; Klebsiella pneumoniae ATCC 10031): 100 mg/L (≈ 109 µM); MIC [7, 21]: 50 mg/L (≈ 54.6 µM); MIC [8]: > 100 mg/L; MIC [9]: 50 mg/L (≈ 54.6 µM); MIC (Proteus vulgaris OX19; [22]): > 100 mg/L; MIC (Serratia marcescens): > 100 mg/L; MIC ([10]; Pseudomonas aeruginosa): > 100 mg/L |
| CCC1OC(=O)CC(O)C(C)C(OC2OC(C)C(O)C(N(C)C)C2O)C(CC=O)CC(C)C(=O)C=CC(C)=CC1CSCCc1ccccc1 (stereo not drawn) [S(CH2)2 C6 H5, 23-(2-phenylethyl)thio-23-demycinosyl-23-deoxydesmycosin] |  |  | ≤ 0.05 mg/L |  |  |  | 50 mg/L (≈ 69.6 µM) | > 100 mg/L | 25 mg/L (≈ 34.8 µM) | 0.1 mg/L (≈ 0.139 µM) | 0.1 mg/L (≈ 0.139 µM) | 50 mg/L (≈ 69.6 µM) | ≤ 0.05 mg/L | ≤ 0.05 mg/L | 0.1 mg/L (≈ 0.139 µM) | ≤ 0.05 mg/L | 0.1 mg/L (≈ 0.139 µM) | 3.1 mg/L (≈ 4.32 µM) | 12.5 mg/L (≈ 17.4 µM) | > 100 mg/L | MIC ([17]; Streptococcus pyogenes, 1022, Streptococcus pyogenes 1022): 25 mg/L (≈ 34.8 µM) |
| CCC1OC(=O)CC(O)C(C)C(OC2OC(C)C(O)C(N(C)C)C2O)C(CC=O)CC(C)C(=O)C=CC(C)=CC1COC(c1ccccc1)(c1ccccc1)c1ccccc1 (stereo not drawn) [OC(C6 H5)3, 23-O-triphenylmethyl-23-demycinosyldesmycosin] |  |  | 0.4 mg/L (≈ 0.476 µM) |  |  |  | > 100 mg/L | > 100 mg/L | > 100 mg/L | 1.6 mg/L (≈ 1.9 µM) | 1.6 mg/L (≈ 1.9 µM) | 6.3 mg/L (≈ 7.5 µM) | 1.6 mg/L (≈ 1.9 µM) | 0.8 mg/L (≈ 0.952 µM) | 1.6 mg/L (≈ 1.9 µM) | 1.6 mg/L (≈ 1.9 µM) | 3.1 mg/L (≈ 3.69 µM) | > 100 mg/L | > 100 mg/L | > 100 mg/L | MIC [18]: 25 mg/L (≈ 29.8 µM); MIC [17, 31]: 3.1 mg/L (≈ 3.69 µM); MIC ([4]; Corynebacterium diptheriae P.Y.8, read-out: MIC): 0.1 mg/L (≈ 0.119 µM) |
| CCC1OC(=O)CC(O)C(C)C(OC2OC(C)C(O)C(N(C)C)C2O)C(CC=O)CC(C)C(=O)C=CC(C)=CC1CSC(C)c1ccccc1 (stereo not drawn) [23-(1-phenylethyl)thio-23-demycinosyl-23-deoxydesmycosin] |  |  | 0.05 mg/L (≈ 0.0696 µM) |  |  |  | 50 mg/L (≈ 69.6 µM) | 100 mg/L (≈ 139 µM) | 50 mg/L (≈ 69.6 µM) | 0.2 mg/L (≈ 0.279 µM) | 0.2 mg/L (≈ 0.279 µM) | 25 mg/L (≈ 34.8 µM) | ≤ 0.05 mg/L | ≤ 0.05 mg/L | 0.2 mg/L (≈ 0.279 µM) | 0.1 mg/L (≈ 0.139 µM) | 0.2 mg/L (≈ 0.279 µM) | 3.1 mg/L (≈ 4.32 µM) | 12.5 mg/L (≈ 17.4 µM) | > 100 mg/L | MIC [17, 31]: 25 mg/L (≈ 34.8 µM) |
